Data: the NIST ThermoML archive (doi:10.1021/je700260f)

Conditions: 303.15 K, Liquid, Vibrating tube method

FC(C(F)(F)F)C(F)(F)F [1,1,1,2,3,3,3-heptafluoropropane]
Conditions	mass density [kg/m3]
15975 kPa	1462
16006 kPa	1462.4
16038 kPa	1462.4
16079 kPa	1462.6
16111 kPa	1462.8
16152 kPa	1462.9
16184 kPa	1463
16220 kPa	1463.2
16252 kPa	1463.4
16288 kPa	1463.6
16325 kPa	1463.8
16349 kPa	1463.9
16386 kPa	1464
16414 kPa	1464.1
16443 kPa	1464.3
16485 kPa	1464.4
16513 kPa	1464.6
16550 kPa	1464.7
16577 kPa	1464.8
16623 kPa	1465.1
16650 kPa	1465.1
16678 kPa	1465.2
16706 kPa	1465.4
16742 kPa	1465.5
16775 kPa	1465.7
16802 kPa	1465.8
16832 kPa	1466
16862 kPa	1466
16887 kPa	1466.2
16920 kPa	1466.4
16953 kPa	1466.4
16978 kPa	1466.6
17021 kPa	1466.7
17046 kPa	1466.9
17084 kPa	1467
17113 kPa	1467.2
17142 kPa	1467.4
17167 kPa	1467.5
17196 kPa	1467.5
17235 kPa	1467.8
17260 kPa	1467.9
17289 kPa	1468
17322 kPa	1468.1
17360 kPa	1468.3
17393 kPa	1468.3
17423 kPa	1468.6
17451 kPa	1468.7
17484 kPa	1468.8
17509 kPa	1468.9
17544 kPa	1469.1
17577 kPa	1469.3
17603 kPa	1469.3
17633 kPa	1469.4
17662 kPa	1469.6
17718 kPa	1469.9
17752 kPa	1470
17778 kPa	1470
17808 kPa	1470.1
17837 kPa	1470.3
17867 kPa	1470.6
17892 kPa	1470.5
17928 kPa	1470.7
17958 kPa	1471
17996 kPa	1471
18026 kPa	1471.1
18056 kPa	1471.2
18091 kPa	1471.3
18125 kPa	1471.6
18151 kPa	1471.7
18185 kPa	1471.7
18211 kPa	1471.9
18238 kPa	1472.2
18277 kPa	1472.1
18303 kPa	1472.4
18333 kPa	1472.5
18359 kPa	1472.6
18389 kPa	1472.6
18419 kPa	1472.9
18449 kPa	1473
18480 kPa	1472.9
18511 kPa	1473.3
18545 kPa	1473.3
18580 kPa	1473.5
18615 kPa	1473.7
18646 kPa	1473.8
18677 kPa	1473.8
18707 kPa	1474.1
18737 kPa	1474.2
18777 kPa	1474.3
18803 kPa	1474.4
18835 kPa	1474.5
18861 kPa	1474.7
18888 kPa	1474.9
18913 kPa	1475
18954 kPa	1475.1
18980 kPa	1475.2
19017 kPa	1475.4
19044 kPa	1475.5
19075 kPa	1475.6
19101 kPa	1475.6
19144 kPa	1475.8
19166 kPa	1476
19200 kPa	1476.1
19235 kPa	1476.3
19270 kPa	1476.4
19296 kPa	1476.6
19327 kPa	1476.6
19353 kPa	1476.7
19385 kPa	1476.8
19420 kPa	1477
19455 kPa	1477.2
19490 kPa	1477.3
19517 kPa	1477.4
19553 kPa	1477.5
19592 kPa	1477.7
19624 kPa	1477.9
19655 kPa	1478.1
19691 kPa	1478.1
19717 kPa	1478.1
19758 kPa	1478.3
19785 kPa	1478.6
19828 kPa	1478.6
19860 kPa	1478.8
19891 kPa	1478.9
19918 kPa	1479
19949 kPa	1479.2
19981 kPa	1479.4
20016 kPa	1479.4
20044 kPa	1479.6
20076 kPa	1479.9
20107 kPa	1479.9
20152 kPa	1480
20179 kPa	1480.1
20216 kPa	1480.2
20244 kPa	1480.4
20285 kPa	1480.6
20325 kPa	1480.6
20357 kPa	1480.8
20394 kPa	1481
20436 kPa	1481.2
20463 kPa	1481.3
20491 kPa	1481.3
20539 kPa	1481.6
20570 kPa	1481.7
20597 kPa	1481.8
20637 kPa	1481.9
20668 kPa	1482
20701 kPa	1482.2
20728 kPa	1482.4
20769 kPa	1482.6
20802 kPa	1482.7
20880 kPa	1482.9
21049 kPa	1483.6
21082 kPa	1483.8
21120 kPa	1483.8
21152 kPa	1484.1
21193 kPa	1484.2
21217 kPa	1484.4
21250 kPa	1484.5
21278 kPa	1484.6
21322 kPa	1484.7
21360 kPa	1484.9
21388 kPa	1485
21421 kPa	1485.1
21458 kPa	1485.3
21490 kPa	1485.4
21523 kPa	1485.5
21556 kPa	1485.5
21593 kPa	1485.8
21626 kPa	1486
22323 kPa	1488.6
22447 kPa	1489.1
22485 kPa	1489.3
22514 kPa	1489.4
22548 kPa	1489.4
22580 kPa	1489.5
22613 kPa	1489.9
22643 kPa	1489.7
22673 kPa	1490
22707 kPa	1490.1
22733 kPa	1490.2
22771 kPa	1490.3
22801 kPa	1490.4
22828 kPa	1490.5
22863 kPa	1490.7
22899 kPa	1490.8
22934 kPa	1490.9
22959 kPa	1491.1
22997 kPa	1491.3
23032 kPa	1491.4
23062 kPa	1491.6
23102 kPa	1491.5
23128 kPa	1491.8
23159 kPa	1491.7
23186 kPa	1491.9
23217 kPa	1492
23249 kPa	1492.1
23281 kPa	1492.3
23307 kPa	1492.3
23342 kPa	1492.6
23364 kPa	1492.6
23395 kPa	1492.8
23431 kPa	1492.8
23462 kPa	1492.9
23497 kPa	1493
